The logD is lipophilicity at a set pH, counting ionised and neutral species. A high value points to a more lipophilic compound.

This is an account of results in US6004992A, “Aminocarboxylic acid fluorobutenyl esters” (Bayer Aktiengesellschaft, priority 1995, dated 1999).

Data set [1] relates to Boophilus Microplus Resistent/SP-resistent Parkhurst Strain. The data set can be described thus: Test with Boophilus Microplus Resistent/SP-resistent Parkhurst Strain (inhibition of oviposition). The data set is classed as in vivo. The settings on record: 20 μg/animal; 1 μl injected into the abdomen, adult females; 100% = no tick has deposited eggs. The method, then:
Test with Boophilus Microplus Resistent/SP-resistent Parkhurst Strain
Test animals: Adult females which have sucked themselves full
Solvent: Dimethyl sulphoxide
20 mg of active compound are dissolved in 1 ml of dimethyl sulphoxide, and lower concentrations are prepared by diluting in the same solvent.
The test is carried out in 5 replications. 1 μl of the solutions is injected into the abdomen, and the animals are transferred into dishes and kept in an air-conditioned room. The activity is determined via the inhibition of oviposition. 100% means that no tick has deposited eggs.

The nature of a further data set: log p (pH 2). The data set is classed as physicochemical.
In the next data set the test system is Meloidogyne incognita. Briefly: Critical Concentration Test/nematodes. The settings on record: 20 ppm (=mg/l soil), four weeks, 25° C., 100% = infestation avoided completely. The data set is classed as in vivo. The method, then:
Critical Concentration Test/nematodes
Test nematode: Meloidogyne incognita
Solvent: 4 parts by weight of acetone
Emulsifier: 1 part by weight of alkylaryl polyglycol ether
To produce a suitable preparation of active compound, 1 part by weight of active compound is mixed with the stated amount of solvent, the stated amount of emulsifier is added and the concentrate is diluted with water to the desired concentration.
The active compound preparation is intimately mixed with soil which is heavily infested with the test nematodes. The active compound concentration in the preparation is immaterial, only the amount of active compound per unit volume of soil, which is given in ppm (=mg/l), matters. The treated soil is transferred into pots, lettuce is sown in, and the pots are kept at a greenhouse temperature of 25° C.
After four weeks, the lettuce roots are checked for infestation with nematodes (root galls) and the efficacy of the active compound in % is determined. The efficacy is 100% when infestation is avoided completely and 0% when the infestation level is just as high as in the control plants in untreated, but equally infested, soil.

Turning to `CC(=O)NC(=Cc1cccs1)C(=O)OCCC(F)=C(F)F` [Example Ia-4], the “activity (inhibition of oviposition)” value in data set [1] was found to be 100%. Compound `C[C@H](NC(=O)c1c(F)cccc1F)C(=O)OCCC(F)=C(F)F` [Example Ib-2, 3,4,4-trifluorobut-3-enyl N-(2,6-difluorobenzoyl)-alaninate] registered a logD in “log p (pH 2)” of 2.42. With `CC(=O)NC(=Cc1ccccc1)C(=O)OCCC(F)=C(F)F` [Example Ia-2], the “efficacy of the active compound in % (nematode infestation of lettuce roots, root galls)” value with Meloidogyne incognita is recorded as 100%. `O=C(OCCC(F)=C(F)F)C1CCCN1C(=O)OCc1ccccc1` (stereo not drawn) [Ic-1] returned a logD in the data set “log p (pH 2)” of 3.31.

The compound `O=C(CNC(=O)c1ccccc1)OCCC(F)=C(F)F` [Ib-6] had a logD in “log p (pH 2)” of 2.09. Still for that read-out and setting: as for `O=CNC1(C(=O)OCCC(F)=C(F)F)CC1` [Ib-14], the figure is 1.32.
